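1) Cells in 96-well plates. 2) Compound, 48 h, 5 concentrations. 3) Linear interpolation between surrounding doses. 4) Unreached endpoint = highest concentration. GI50 marks 50% less growth. At the TGI there is no net growth.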
How the values were obtained:
Experiment in all cases: growth of human tumour cells (NCI), 48 h
HOP-62 NSCLC = system: HOP-62 NSCLC
HS 578T breast = system: HS 578T breast
M14 melanoma = system: M14 melanoma
NCI-H23 lung = system: NCI-H23 lung
NCI-H522 lung = system: NCI-H522 lung
RXF 393 renal = system: RXF 393 renal
SK-MEL-2 melanoma = system: SK-MEL-2 melanoma
SK-OV-3 ovarian = system: SK-OV-3 ovarian
TK-10 renal = system: TK-10 renal
CAKI-1 renal = system: CAKI-1 renal

Structure (SMILES) | TGI (HOP-62 NSCLC) [µM] | TGI (HS 578T breast) [µM] | TGI (M14 melanoma) [µM] | TGI (NCI-H23 lung) [µM] | TGI (NCI-H522 lung) [µM] | TGI (RXF 393 renal) [µM] | TGI (SK-MEL-2 melanoma) [µM] | TGI (SK-OV-3 ovarian) [µM] | TGI (TK-10 renal) [µM] | TGI (CAKI-1 renal) [µM] | GI50 (CAKI-1 renal) [µM] | GI50 (M14 melanoma) [µM] | GI50 (SK-MEL-2 melanoma) [µM] | GI50 (SK-OV-3 ovarian) [µM] | GI50 (NCI-H23 lung) [µM]
CCC1(OC(=O)CN2CCN(CCO)CC2)C(=O)OCc2c1cc1n(c2=O)Cc2cc3ccccc3nc2-1 (centres undefined) | 4.55 | > 85.8 | 1.92 | 2.43 | 3.05 | 3.27 | 9.52 | 14.7 | > 100 |  |  |  |  |  | 
COCCOCN(C(=O)C1=CCC2(CC1)OCCO2)c1ccccc1I | > 50 |  | > 50 | > 50 |  |  | > 50 | > 50 | > 50 | > 50 |  |  |  |  | 
CCOc1ccc2ccccc2c1NC1=NCCO1 | 74.2 | 78.2 | > 100 | > 100 |  | > 100 |  | > 100 | > 100 |  |  |  |  |  | 
CCOC(=O)C1(Cc2ccccc2)Cc2cc3c(cc2C1)CCC3 | > 100 | > 100 | > 100 | > 100 | 96.2 |  | 34.3 | 90.9 | > 100 | > 100 |  |  |  |  | 
O=C1/C(=C\c2ccc([N+](=O)[O-])cc2)Sc2scc(-c3ccc(O)c(O)c3)[n+]21 | 27.5 | 63.7 | 27.4 | 44.6 | 5.34 |  | 29.3 | 26.2 | 10.6 | 9.72 |  |  |  |  | 
Cc1nc2c(o1)C(=O)c1ccccc1C2=NC1CCCCC1N (centres undefined) | 2.3 | 2.76 | 1.53 | 0.276 | 2.33 |  | 2.53 |  | 3.84 | 3.12 |  |  |  |  | 
COc1cc2cc(Oc3ccc(NC(=O)Nc4ccc(F)c(C(F)(F)F)c4)cc3)c(C)nc2cc1OCCN1CCCCC1 |  |  | 3.53 |  |  |  | 3.45 | 3.42 |  | 2.78 | 1.47 | 1.81 | 1.84 | 1.87 | 
CCOc1ccc(N2C(=O)C3c4[nH]c5ccccc5c4C4CCC(C(C)(C)C)CC4C3C2=O)cc1 (centres undefined) | > 100 |  | > 100 | > 100 | > 100 | 71 |  | > 100 |  |  |  |  |  |  | 
CN(C)CCOc1ccc(I)cc1Cc1ccccc1 | 28.6 | 29.3 | 6 | 12.6 | 25 | 32.5 | 30.7 | 33 | 25.5 |  |  |  |  |  | 
CCOC(=O)N1CCN(Cc2cc(=O)n3cc(C)ccc3n2)CC1 | > 100 | > 100 | > 100 | > 100 | > 100 |  | > 100 | > 100 | > 100 | > 100 |  |  |  |  | 
O=[N+]([O-])c1ccc(Cl)cc1-n1nc(-c2ccccc2)cc1-c1ccccc1 |  | > 100 | > 100 | > 100 | > 100 |  | > 100 | > 100 | > 100 | > 100 |  |  |  |  | 
COC(=O)C1Cc2ccc(C)cc2C1=O (centres undefined) | > 100 | > 100 | > 100 | > 100 | > 100 |  | > 100 | > 100 | > 100 | > 100 |  |  |  |  | 
CC(=O)N1c2ccccc2C(C)(C)OC1C(Cl)(Cl)Cl (centres undefined) | > 100 | > 100 | > 100 | > 100 | 69.3 |  | > 100 | > 100 | > 100 | > 100 |  |  |  |  | 
COC(=O)[C@@H]1C=C[C@@H](C#N)n2c(=O)n(-c3ccccc3)c(=O)n21 | 56.2 | > 100 | > 100 | > 100 | 32.4 |  |  | > 100 | > 100 | > 100 |  |  |  |  | 
O=C(O)CCC(NC(=O)c1ccc(Nc2nc3ccccc3nc2C(=O)O)cc1)C(=O)O (centres undefined) | > 100 | > 100 | > 100 | > 100 | > 100 |  | > 100 | > 100 | > 100 | > 100 |  |  |  |  | 
CC(O)c1c2c(cc3c1CC1(C3)Cc3cc4c(c(C(C)O)c3C1)CCC4)CCC2 (centres undefined) | 38.8 | 52.8 | 35.2 | 40.4 | 30 | 30 | 43.3 | 60.8 | 69.7 |  |  |  |  |  | 
Cc1nc(-c2ccccc2)c(C)n2c1nc1ccccc12 | > 100 | > 100 | 46 | 40.9 |  | 88.9 | 45.9 | 46.3 | 84 | > 100 |  |  |  |  | 
CC(C)Nc1[nH]c(C(=O)c2ccccc2)c(N)c1C(=S)Nc1ccccc1 | > 100 | > 100 | 48.5 | > 100 | > 100 |  | 52.1 | > 100 | > 100 | > 100 |  |  |  |  | 
CCOC(=O)c1ncoc1[C@H]1COC(C)(C)O1 | > 100 |  | > 100 | > 100 | > 100 | > 100 | > 100 | > 100 | > 100 | > 100 |  |  |  |  | 

Structure (SMILES) | TGI (HOP-62 NSCLC) [µM] | TGI (HS 578T breast) [µM] | TGI (M14 melanoma) [µM] | TGI (NCI-H23 lung) [µM] | TGI (NCI-H522 lung) [µM] | TGI (RXF 393 renal) [µM] | TGI (SK-MEL-2 melanoma) [µM] | TGI (SK-OV-3 ovarian) [µM] | TGI (TK-10 renal) [µM] | TGI (CAKI-1 renal) [µM] | GI50 (CAKI-1 renal) [µM] | GI50 (M14 melanoma) [µM] | GI50 (SK-MEL-2 melanoma) [µM] | GI50 (SK-OV-3 ovarian) [µM] | GI50 (NCI-H23 lung) [µM]
O=C1C=C(N2CCCC2)C=C(N2CCCC2)C1 | > 100 |  | > 100 | > 100 | > 100 | > 100 | > 100 | > 100 | > 100 | > 100 |  |  |  |  | 
CCN(CC)CCNC(=O)c1ccc([N+](=O)[O-])cc1OC | > 100 |  | > 100 | > 100 | > 100 | > 100 | > 100 | > 100 | > 100 | > 100 |  |  |  |  | 
CC1=C2C(=O)O[C@@H](c3ccoc3)[C@]2(C)CCC1=O | > 100 |  | > 100 | > 100 |  |  | > 100 | > 100 |  | > 100 |  |  |  |  | 
O=C(O)C(Cc1ccc2c(c1)CCC2)(Cc1ccc2c(c1)CCC2)C(=O)O | > 100 | > 100 | > 100 | > 100 | > 100 | > 100 | > 100 | > 100 | > 100 |  |  |  |  |  | 
CCOc1cc(/C=N\N(C)C)cc(/C=N\N(C)C)c1O | > 100 | > 100 | > 100 | > 100 |  |  | 77 | > 100 | > 100 | 46.8 |  |  |  |  | 
N#C/C(=C1\N=C(c2ccccc2O)Oc2ccccc21)c1ccc([N+](=O)[O-])cc1 | > 100 | > 100 | > 100 | > 100 |  | > 100 | > 100 | > 100 | > 100 | > 100 |  |  |  |  | 
O=c1[nH]c2cc(C(F)(F)F)ccc2nc1Cc1ccccc1 | 95.9 | > 100 | > 100 | 68.8 |  | 85.8 | > 100 | 87.4 | > 100 | > 100 |  |  |  |  | 
O=C1Nc2cccc3ncn(c23)C2=C1CCCC2 |  |  |  | > 100 | > 100 | > 100 | > 100 | > 100 | > 100 |  |  |  |  |  | 
Cc1c(C(=O)CSc2nc3ccc([N+](=O)[O-])cc3[nH]2)c(=O)n(-c2ccccc2)n1C | > 100 |  | > 100 | > 100 | > 100 |  | > 100 | > 100 | > 100 | > 100 |  |  |  |  | 
COc1cc2c(cc1OC)C1Cc3ccccc3CCN1CC2 (centres undefined) | > 100 | > 100 | > 100 | > 100 | > 100 |  | > 100 | > 100 | > 100 | > 100 |  |  |  |  | 
CC12CC3CC/C(=N\O)C(C1)C3(N1CCOCC1)C/C2=N/O (centres undefined) | > 100 |  | > 100 | > 100 | > 100 | > 100 | > 100 | > 100 |  | > 100 |  |  |  |  | 
O=C1CC2CC=C[C@H]3c4cc5c(cc4C(=O)N1C23)OCO5 (some centres undefined) | > 50 |  | > 50 | > 50 | > 50 | > 50 |  | > 50 | > 50 |  |  |  |  |  | 
COc1cc(C2CC(c3cccc(Nc4ccncc4)c3)=NN2c2cc(Cl)cc(Cl)c2)cc(OC)c1OC (centres undefined) |  |  | 3.36 | 3.38 |  |  | 4.13 | 3.89 |  | 2.91 | 1.53 | 1.75 | 2.05 | 1.86 | 1.79
Cc1cccc(/C=N/NC(=S)NCc2ccccn2)n1 | > 78.6 | > 100 | 42.6 | > 100 | > 100 |  | > 100 | 97.7 | > 100 | > 100 |  |  |  |  | 
N#Cc1ncn(-c2ccccc2)c1N | > 100 | > 100 | > 100 | > 100 | > 100 |  | > 100 | > 100 | > 100 | > 100 |  |  |  |  | 
Cc1cc2nc(N3C(=O)/C(=C/c4cccc([N+](=O)[O-])c4)N=C3c3ccccc3)sc2cc1C | > 100 | > 100 | > 100 |  |  | 58 | 60 | > 100 | > 100 | > 100 |  |  |  |  | 
COc1ncnc2c1cnn2Cc1cn(COCC(O)CO)nn1 (centres undefined) | > 100 |  | > 100 | > 100 | 26.2 |  | > 100 | > 100 | > 100 | > 100 |  |  |  |  | 
O=C(O)C(CS)NCc1c2ccccc2[n+]([O-])c2ccccc12 (centres undefined) | > 100 |  | > 100 | > 100 | > 100 |  | > 100 | > 100 | > 100 | > 100 |  |  |  |  | 

Reference: PubChem BioAssay (NCI)
